Paper PMC11726183, “Design, synthesis, in vitro, and in silico studies of novel isatin-hybrid hydrazones as potential triple-negative breast cancer agents” (RSC Advances, 2025)
Like-named read-outs stand apart in the source and are kept apart here.

Columns and labels:
Format in all cases: cell-based, human
[1] = MTT cytotoxicity assay on normal breast epithelial cell line MCF-10A (control); details: human, MTT, 48 h, concentration for the value not given (6.5-50 μM tested)
Excerpt: (§1) Breast cancer cells MDA-MB-231 were used to investigate the synthesized compounds' anticancer properties. Because these cancer cells lack estrogen receptors (ER), progesterone receptors (PR), and human epidermal growth factor receptor 2 (HER2), they are also known as triple-negative breast cancer cells (TNBC).[44] These receptors are generally utilized as target proteins in cancer treatment and are often overexpressed in cancer cells. […] At the same time human normal breast epithelial cell line MCF-10A was kept as a control in the experiment to check out whether the cytotoxic effects of the compounds were selective for malignant cells in comparison to non-malignant cells. Variable concentrations (6.5 μM, 12.5 μM, 25 μM, and 50 μM) of the synthesized compounds 5–25 were used to investigate the prohibition of growth in the human breast cancer cell line MDA-MB-231 and the non-tumorigenic MCF-10. The MTT [3-(4,5-dimethylthiazol-2-yl)-2,5-diphenyltetrazolium bromide] assay was used to determine the reduction in cancer cell viability induced by cytotoxic agents. […] IBM SPSS Statistics 26 software was used for the analysis of dose–response and computation of IC50 values.
(§2) In vitro, cytotoxicity assay for the synthetic derivatives was determined by performing an MTT (yellow tetrazolium salt, 3-(4,5-dimethylthizol-2-yl)-2,5-diphenyl tetrazolium bromide) assay by using an aggressive breast cancer cell line MDA-MB-231.[51] Human breast normal cell line MCF-10A was kept as a control in the study.[52,53] Cells were cultured in DMEM augmented with 10% FBS and 1% antibiotics (100 U per mL penicillin). The cells were sowed in a 96-well plate at a 1.0 × 10^4 cells per well density and incubated for 24 h at 37 °C in 5% CO2. The medium was discarded, and both the cell lines were treated with different concentrations (6.5 μM, 12.5 μM, 25 μM, and 50 μM) of synthetic hydrazone derivatives.[54] After 48 h of incubation 20 μL of MTT solution (5 mg mL^−1) was pipetted into each well and incubated for another 4 h.[55] Later the medium was discarded, and the precipitate of formazan was dissolved in DMSO. The absorbance of the mixtures was calculated using a microplate reader at 570 nm. Triplicates were used for performing all experiments and the cytotoxicity was expressed as a percentage of cell viability compared to untreated control cells.[54]1 [drawing 22]

normal cell line MCF-10 = experiment: as above; details: for IC50: read-out: IC50 values, normal cell line MCF-10
Excerpt: as §1, §2

[2] = system: MDA-MB-231 breast cancer cell line; experiment: MTT cytotoxicity assay on breast cancer cell line MDA-MB-231; details: for IC50: read-out: IC50 values, breast cancer cell line MDA-MB-231; for % viability, breast cancer cell line MDA-MB-231: concentration for the value not given (6.5-50 μM tested)
Excerpt: as §1, §2

[3] = MCF-10A normal breast epithelial cells
[4] = Homo sapiens, MCF10, MTT, 48 h, unit from text (highest concentration 50 μM)
[5] = Homo sapiens, MDA-MB-231, MTT, 48 h

Compound: O=C(N/N=C1/C(=O)N(Cc2ccccc2)c2ccccc21)c1cccc(Cl)c1 [Compound 5, (E)-N′-(1-Benzyl-2-oxoindolin-3-ylidene)-3-chlorobenzohydrazide]
- viability at 48 h [1]: 80.1%
- IC50 (normal cell line MCF-10; Homo sapiens, MCF10, 48 h): > 50 µM
- IC50 ([2]; Homo sapiens, MDA-MB-231, 48 h): 26.4 ± 0.8 µM
- % viability, breast cancer cell line MDA-MB-231 ([2]; MTT, 48 h): 27.11%

Compound: Cc1ccc(F)c(C(=O)N/N=C2/C(=O)N(Cc3ccccc3)c3ccccc32)c1 [Compound 7, (E)-N′-(1-Benzyl-2-oxoindolin-3-ylidene)-2-fluoro-5-methylbenzohydrazide]
- viability at 48 h [1]: 79.3%
- IC50 (normal cell line MCF-10; Homo sapiens, MCF10, 48 h): > 50 µM
- IC50 ([2]; Homo sapiens, MDA-MB-231, 48 h): 33.6 ± 0.5 µM
- % viability, breast cancer cell line MDA-MB-231 ([2]; MTT, 48 h): 30.01%

Compound: O=C(Cc1ccccc1)N/N=C1/C(=O)N(Cc2ccccc2)c2ccccc21 [Compound 24, (E)-N′-(1-Benzyl-2-oxoindolin-3-ylidene)-2-phenylacetohydrazide]
- viability at 48 h [1, 3]: 78.5%
- IC50 (normal cell line MCF-10; [4]): > 50 µM
- IC50 [2, 5]: 24.5 ± 0.8 µM
- % viability, breast cancer cell line MDA-MB-231 ([2]; MTT, 48 h): 29.54%

Compound: O=C(Cc1ccc(F)cc1F)N/N=C1/C(=O)N(Cc2ccccc2)c2ccccc21 [Compound 21, (E)-N′-(1-Benzyl-2-oxoindolin-3-ylidene)-2-(2,4-difluorophenyl)acetohydrazide]
- viability at 48 h [1]: 85.7%
- IC50 (normal cell line MCF-10; Homo sapiens, MCF10, 48 h): > 50 µM
- IC50 ([2]; Homo sapiens, MDA-MB-231, 48 h): 22.2 ± 0.7 µM
- % viability, breast cancer cell line MDA-MB-231 ([2]; MTT, 48 h): 22.46%

Compound: (E)-1-Benzyl-3-((2-(4-nitrophenyl)-2-oxoethyl)imino)indolin-2-one [Compound 23]
- % viability, normal cell line MCF-10 (normal cell line MCF-10; MTT, 48 h, concentration for the value not given (6.5-50 μM tested)): 75.23%
- IC50 (normal cell line MCF-10; MTT, 48 h, unit from text (highest concentration 50 μM)): > 50 µM
- % viability, breast cancer cell line MDA-MB-231 ([2]; MTT, 48 h): 17.37%
- IC50 ([2]; MTT, 48 h): 15.8 ± 0.6 µM

Compound: O=C(Cc1ccccc1C(F)(F)F)N/N=C1/C(=O)N(Cc2ccccc2)c2ccccc21 [Compound 10, (E)-N′-(1-Benzyl-2-oxoindolin-3-ylidene)-2-(2-(trifluoromethyl)phenyl)acetohydrazide]
- viability at 48 h [1, 3]: 84.9%
- IC50 (normal cell line MCF-10; [4]): > 50 µM
- IC50 [2, 5]: 25.4 ± 0.8 µM
- % viability, breast cancer cell line MDA-MB-231 ([2]; MTT, 48 h): 29.12%

Compound: O=C(N/N=C1/C(=O)N(Cc2ccccc2)c2ccccc21)c1ccc(Br)cc1 [Compound 14, (E)-N′-(1-Benzyl-2-oxoindolin-3-ylidene)-4-bromobenzohydrazide]
- viability at 48 h [1]: 85.4%
- IC50 (normal cell line MCF-10; Homo sapiens, MCF10, 48 h): > 50 µM
- IC50 ([2]; Homo sapiens, MDA-MB-231, 48 h): 36.8 ± 0.7 µM
- % viability, breast cancer cell line MDA-MB-231 ([2]; MTT, 48 h): 42.11%

Compound: Cc1ccccc1C(=O)N/N=C1/C(=O)N(Cc2ccccc2)c2ccccc21 [Compound 15, (E)-N′-(1-Benzyl-2-oxoindolin-3-ylidene)-2-methylbenzohydrazide]
- viability at 48 h [1]: 84.3%
- IC50 (normal cell line MCF-10; Homo sapiens, MCF10, 48 h): > 50 µM
- IC50 ([2]; Homo sapiens, MDA-MB-231, 48 h): 24.4 ± 0.6 µM
- % viability, breast cancer cell line MDA-MB-231 ([2]; MTT, 48 h): 23.77%

Compound: O=C(N/N=C1/C(=O)N(Cc2ccccc2)c2ccccc21)c1ccccc1Cl [Compound 20, (E)-N′-(1-Benzyl-2-oxoindolin-3-ylidene)-2-chlorobenzohydrazide]
- viability at 48 h [1]: 77.6%
- IC50 (normal cell line MCF-10; Homo sapiens, MCF10, 48 h): > 50 µM
- IC50 ([2]; Homo sapiens, MDA-MB-231, 48 h): 28.8 ± 0.6 µM
- % viability, breast cancer cell line MDA-MB-231 ([2]; MTT, 48 h): 34.56%

Compound: O=C(N/N=C1/C(=O)N(Cc2ccccc2)c2ccccc21)c1ccncc1 [Compound 8, (E)-N′-(1-Benzyl-2-oxoindolin-3-ylidene)isonicotinohydrazide]
- viability at 48 h [1]: 78.1%
- IC50 (normal cell line MCF-10; Homo sapiens, MCF10, 48 h): > 50 µM
- IC50 ([2]; Homo sapiens, MDA-MB-231, 48 h): 16.8 ± 0.9 µM
- % viability, breast cancer cell line MDA-MB-231 ([2]; MTT, 48 h): 19.13%

Compound: COc1ccc(C(=O)N/N=C2/C(=O)N(Cc3ccccc3)c3ccccc32)cc1 [Compound 6, (E)-N′-(1-Benzyl-2-oxoindolin-3-ylidene)-4-methoxybenzohydrazide]
- viability at 48 h [1]: 81.1%
- IC50 (normal cell line MCF-10; Homo sapiens, MCF10, 48 h): > 50 µM
- IC50 ([2]; Homo sapiens, MDA-MB-231, 48 h): 25.8 ± 0.4 µM
- % viability, breast cancer cell line MDA-MB-231 ([2]; MTT, 48 h): 26.13%

Compound: O=C(N/N=C1/C(=O)N(Cc2ccccc2)c2ccccc21)c1cccc2ccccc12 [Compound 13, (E)-N′-(1-Benzyl-2-oxoindolin-3-ylidene)-1-naphthohydrazide]
- viability at 48 h [1]: 79.1%
- IC50 (normal cell line MCF-10; Homo sapiens, MCF10, 48 h): > 50 µM
- IC50 ([2]; Homo sapiens, MDA-MB-231, 48 h): 28.6 ± 0.5 µM
- % viability, breast cancer cell line MDA-MB-231 ([2]; MTT, 48 h): 29.01%

Compound: O=C(N/N=C1/C(=O)N(Cc2ccccc2)c2ccccc21)c1ccc(C(F)(F)F)cc1 [Compound 17, (E)-N′-(1-Benzyl-2-oxoindolin-3-ylidene)-4-(trifluoromethyl)benzohydrazide]
- viability at 48 h [1]: 77.6%
- IC50 (normal cell line MCF-10; Homo sapiens, MCF10, 48 h): > 50 µM
- IC50 ([2]; Homo sapiens, MDA-MB-231, 48 h): 37.5 ± 0.9 µM
- % viability, breast cancer cell line MDA-MB-231 ([2]; MTT, 48 h): 38.09%

Compound: Cc1ccc(C(=O)N/N=C2/C(=O)N(Cc3ccccc3)c3ccccc32)cc1F [Compound 9, (E)-N′-(1-Benzyl-2-oxoindolin-3-ylidene)-3-fluoro-4-methylbenzohydrazide]
- viability at 48 h [1]: 76.2%
- IC50 (normal cell line MCF-10; Homo sapiens, MCF10, 48 h): > 50 µM
- IC50 ([2]; Homo sapiens, MDA-MB-231, 48 h): 27.4 ± 0.5 µM
- % viability, breast cancer cell line MDA-MB-231 ([2]; MTT, 48 h): 25.61%

Compound: O=C(N/N=C1/C(=O)N(Cc2ccccc2)c2ccccc21)c1ccco1 [Compound 16, (E)-N′-(1-Benzyl-2-oxoindolin-3-ylidene)furan-2-carbohydrazide]
- viability at 48 h [1]: 79.9%
- IC50 (normal cell line MCF-10; Homo sapiens, MCF10, 48 h): > 50 µM
- IC50 ([2]; Homo sapiens, MDA-MB-231, 48 h): 29.2 ± 0.7 µM
- % viability, breast cancer cell line MDA-MB-231 ([2]; MTT, 48 h): 29.40%

Compound: O=C(N/N=C1/C(=O)N(Cc2ccccc2)c2ccccc21)c1ccccc1Br [Compound 22, (E)-N′-(1-Benzyl-2-oxoindolin-3-ylidene)-2-bromobenzohydrazide]
- viability at 48 h [1]: 78.4%
- IC50 (normal cell line MCF-10; Homo sapiens, MCF10, 48 h): > 50 µM
- IC50 ([2]; Homo sapiens, MDA-MB-231, 48 h): 26.1 ± 0.7 µM
- % viability, breast cancer cell line MDA-MB-231 ([2]; MTT, 48 h): 21.28%

Compound: O=C(Cc1ccc(C(F)(F)F)cc1)N/N=C1/C(=O)N(Cc2ccccc2)c2ccccc21 [Compound 12, (E)-N′-(1-Benzyl-2-oxoindolin-3-ylidene)-2-(4-(trifluoromethyl)phenyl)acetohydrazide]
- viability at 48 h [1, 3]: 80.4%
- IC50 (normal cell line MCF-10; [4]): > 50 µM
- IC50 [2, 5]: 31.2 ± 0.9 µM
- % viability, breast cancer cell line MDA-MB-231 ([2]; MTT, 48 h): 36.52%

Compound: O=C(N/N=C1/C(=O)N(Cc2ccccc2)c2ccccc21)c1ccccc1 [Compound 11, (E)-N′-(1-Benzyl-2-oxoindolin-3-ylidene)benzohydrazide]
- viability at 48 h [1]: 82%
- IC50 (normal cell line MCF-10; Homo sapiens, MCF10, 48 h): > 50 µM
- IC50 ([2]; Homo sapiens, MDA-MB-231, 48 h): 28.4 ± 0.5 µM
- % viability, breast cancer cell line MDA-MB-231 ([2]; MTT, 48 h): 25.41%

Compound: O=C(N/N=C1\C(=O)N(Cc2ccccc2)c2ccccc21)c1cccnc1 [Compound 18, (Z)-N′-(1-Benzyl-2-oxoindolin-3-ylidene)nicotinohydrazide]
- viability at 48 h [1]: 85.1%
- IC50 (normal cell line MCF-10; Homo sapiens, MCF10, 48 h): > 50 µM
- IC50 ([2]; Homo sapiens, MDA-MB-231, 48 h): 34.6 ± 0.4 µM
- % viability, breast cancer cell line MDA-MB-231 ([2]; MTT, 48 h): 41.19%

Compound: O=C(Cc1ccccc1Nc1c(Cl)cccc1Cl)N/N=C1/C(=O)N(Cc2ccccc2)c2ccccc21 [Compound 19, (E)-N′-(1-Benzyl-2-oxoindolin-3-ylidene)-2-(2-((2,6-dichlorophenyl)amino)phenyl) acetohydrazide]
- viability at 48 h [1, 3]: 80.3%
- IC50 (normal cell line MCF-10; [4]): > 50 µM
- IC50 [2, 5]: 29.2 ± 0.4 µM
- % viability, breast cancer cell line MDA-MB-231 ([2]; MTT, 48 h): 37.23%

Compound: O=C(N/N=C1/C(=O)N(Cc2ccccc2)c2ccccc21)c1cc2ccccc2cc1O [Compound 25, (E)-N′-(1-Benzyl-2-oxoindolin-3-ylidene)-3-hydroxy-2-naphthohydrazide]
- viability at 48 h [1]: 76.3%
- IC50 (normal cell line MCF-10; Homo sapiens, MCF10, 48 h): > 50 µM
- IC50 ([2]; Homo sapiens, MDA-MB-231, 48 h): 30.6 ± 0.4 µM
- % viability, breast cancer cell line MDA-MB-231 ([2]; MTT, 48 h): 31.67%
